Measured values published in patent publication US9113629B2, “4-amino-6-(4-substituted-phenyl)-picolinates and 6-amino-2-(4-substituted-phenyl)-pyrimidine-4-carboxylates and their use as herbicides” (DOW AGROSCIENCES LLC, priority 2013, dated 2015).
Read-outs that look alike come from different tables or passages of the source.

Key:
[1] = system: Key Broadleaf Weed and Crop Species; test: Post-emergent Test II herbicidal activity (Table 5); format: in vivo; details: post-emergence, 336 h, 14 days after application; for pest or weed control at 70 g/ha: application rate 70 g ai/ha; for pest or weed control at 140 g/ha: application rate 140 g ai/ha
Outline: (§1)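 Percent injury, 0 (none) to 100 (complete kill), was judged visually 14 d after spraying young plants at the first or second true leaf stage with compound in an acetone/DMSO aqueous carrier at 187 L/ha. Plants were kept in a greenhouse at 23–29 °C by day.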

[2] = system: Key Grass and Sedge Weeds as well as Grass Crops; test: Post-emergent Test II herbicidal activity (Table 6); format: in vivo; details: post-emergence, 336 h; for pest or weed control at 70 g/ha: 70 g ai/ha; for pest or weed control at 140 g/ha: 140 g ai/ha
Outline: as §1

[3] = ABUTH: velvetleaf (Abutilon theophrasti), read-out: Visual Growth Reduction (%) 14 Days After Application, ABUTH
[4] = AMARE: redroot pigweed (Amaranthus retroflexus), read-out: Visual Growth Reduction (%) 14 Days After Application, AMARE
[5] = BRSNN: oilseed-rape, canola (Brassica napus), read-out: Visual Growth Reduction (%) 14 Days After Application, BRSNN
[6] = CHEAL: lambsquarters (Chenopodium album), read-out: Visual Growth Reduction (%) 14 Days After Application, CHEAL
[7] = EPHHL: wild poinsettia (Euphorbia heterophylla), read-out: Visual Growth Reduction (%) 14 Days After Application, EPHHL
[8] = HELAN: sunflower (Helianthus annuus), read-out: Visual Growth Reduction (%) 14 Days After Application, HELAN
[9] = VIOTR: wild pansy (Viola tricolor), read-out: Visual Growth Reduction (%) 14 Days After Application, VIOTR
[10] = CYPES: yellow nutsedge (Cyperus esculentus), read-out: Visual Growth Reduction (%) 14 Days After Application, CYPES
[11] = DIGSA: crabgrass (Digitaria sanguinalis), read-out: Visual Growth Reduction (%) 14 Days After Application, DIGSA
[12] = ECHCG: barnyardgrass (Echinochloa crus-galli), read-out: Visual Growth Reduction (%) 14 Days After Application, ECHCG
[13] = ORYSA: rice (Oryza sativa), crop, read-out: Visual Growth Reduction (%) 14 Days After Application, ORYSA
[14] = SETFA: giant foxtail (Setaria faberi), read-out: Visual Growth Reduction (%) 14 Days After Application, SETFA
[15] = SORVU: grain sorghum (Sorghum vulgare), read-out: Visual Growth Reduction (%) 14 Days After Application, SORVU
[16] = TRZSS (wheat, Triticum aestivum), crop, read-out: Visual Growth Reduction (%) 14 Days After Application, TRZSS
[17] = ZEAMX: maize, corn (Zea mays), crop, read-out: Visual Growth Reduction (%) 14 Days After Application, ZEAMX

SMILES: COC(=O)c1nc(-c2ccccc2)nc(N)c1OC [Compound 175]
- melting point: 123 to 124 °C
- pest or weed control at 70 g/ha [1, 3]: 45 to 59%
- pest or weed control at 140 g/ha [1, 3]: 45 to 59%
- pest or weed control at 70 g/ha [1, 4]: 45 to 59%
- pest or weed control at 140 g/ha [1, 4]: 95 to 100%
- pest or weed control at 70 g/ha [1, 5]: 0 to 29%
- pest or weed control at 140 g/ha [1, 5]: 0 to 29%
- pest or weed control at 70 g/ha [1, 6]: 0 to 29%
- pest or weed control at 140 g/ha [1, 6]: 30 to 44%
- pest or weed control at 70 g/ha [1, 7]: 85 to 94%
- pest or weed control at 140 g/ha [1, 7]: 85 to 94%
- pest or weed control at 70 g/ha [1, 8]: 45 to 59%
- pest or weed control at 140 g/ha [1, 8]: 60 to 74%
- pest or weed control at 70 g/ha [1, 9]: 0 to 29%
- pest or weed control at 140 g/ha [1, 9]: 0 to 29%
- pest or weed control at 70 g/ha [2, 10]: 0 to 29%
- pest or weed control at 140 g/ha [2, 10]: 0 to 29%
- pest or weed control at 70 g/ha [2, 11]: 0 to 29%
- pest or weed control at 140 g/ha [2, 11]: 0 to 29%
- pest or weed control at 70 g/ha [2, 12]: 0 to 29%
- pest or weed control at 140 g/ha [2, 12]: 0 to 29%
- pest or weed control at 70 g/ha [2, 13]: 0 to 29%
- pest or weed control at 140 g/ha [2, 13]: 0 to 29%
- pest or weed control at 70 g/ha [2, 14]: 0 to 29%
- pest or weed control at 140 g/ha [2, 14]: 0 to 29%
- pest or weed control at 70 g/ha [2, 15]: 0 to 29%
- pest or weed control at 140 g/ha [2, 15]: 0 to 29%
- pest or weed control at 70 g/ha [2, 16]: 0 to 29%
- pest or weed control at 140 g/ha [2, 16]: 0 to 29%
- pest or weed control at 70 g/ha [2, 17]: 0 to 29%
- pest or weed control at 140 g/ha [2, 17]: 0 to 29%
